Data on 28 compounds can be found in paper PMC8078842 (PLoS Neglected Tropical Diseases, 2021).

Counter-ions that a name gives are not always drawn. Like-named read-outs stand apart in the source and are kept apart here. Bridge positions count the residues as written; N and C are the ends. Ends that are not written are not given here.

For orientation: Ki means a measure of affinity in units of concentration, obtained from inhibition or displacement. For orientation: Papp A→B means how fast a substance crosses the layer from the apical side. Read a low Papp A→B as poor permeation. In general, Papp B→A refers to how fast a substance crosses the layer from the basolateral side.

For series [1], the target named is Angiotensin II, AT2. Set-up: method as in PERKIN ELMER. The following applies: reference compound of the assay; ref PERKIN ELMER; cited from earlier work.
Series [2] addresses Adenosine, Non-selective. The settings on record: read-out: Reference Ki; reference compound of the assay; ref PERKIN ELMER; cited from earlier work.
For series [3], the target named is Nitric Oxide, NOS (Neuronal-Binding). Set-up: method as in PERKIN ELMER. The settings on record: reference compound of the assay; ref PERKIN ELMER; cited from earlier work.
The subject of series [4] is P-gp (human MDR1). Briefly: in vitro. The settings on record: dog, UPLC-MS/MS.
For series [5], the target named is Sodium, Site 2. Set-up: method as in PERKIN ELMER. The following applies: reference compound of the assay; ref PERKIN ELMER; cited from earlier work.
The target of series [6] is Muscarinic, Non-selective, Central. Set-up: method as in PERKIN ELMER. The following applies: reference compound of the assay; ref PERKIN ELMER; cited from earlier work.
Series [7] has as its target Glutamate, Kainate Site (Ionotropic). Set-up: method as in PERKIN ELMER. The following applies: reference compound of the assay; ref PERKIN ELMER; cited from earlier work.
The conditions of series [8]: cited from earlier work.
The target of series [9] is Glutamate,NMDA,Glycine (Stry-insens Site) (Ionot). The following applies: read-out: Reference Ki; reference compound of the assay; ref PERKIN ELMER; cited from earlier work.
Series [10] has as its system human red blood cells. Briefly: Haemolysis assay. It is filed as cell-based. The procedure: Haemolysis Assay. The assay is based on the protocol detailed by. To determine the total blood haemoglobin, the CMH method was used to map a standard curve based on the absorption wavelength at 540 nm. Nine calibration standards were produced by preparing a stock solution of 5 mg/ml (standard 1) using haemoglobin standards in CMH reagent and serially diluting it to produce further standards of concentrations 2.5, 1, 0.80, 0.40, 0.20, 0.10, 0.05, and 0.025 mg/ml. 10% Triton X-100 (v/v) was prepared using distilled water to be used as the positive control. A 0.05% solution of DMSO was prepared using distilled water and used as one of the negative controls. 0.9% saline was another negative control. Pluronic samples were prepared in 0.9% saline.
A 5 ml vial of whole blood was centrifuged at 800 g for 15 minutes at room temperature. The supernatant was removed, and the […] was used to determine the plasma free haemoglobin (PFH) concentration.
200 μl x 2 of each of the calibration standards prepared were then transferred onto the 96-well plate and 200 μl x 4 of CMH reagent (control 1). […] After shaking it gently for a few minutes, the absorbance was read at 540 nm. […] 100 μl of CMH reagent was added to all these before measuring the absorbance spectrophotometrically at 540 nm. Using the calibration curve mapped earlier, the haemoglobin concentration in each of the wells was determined. […]

Series [11] concerns the target Imidazoline, I2 [central]. Set-up: method as in PERKIN ELMER. The settings on record: reference compound of the assay; ref PERKIN ELMER; cited from earlier work.
Series [12] deals with Histamine, H1. Set-up: method as in PERKIN ELMER. The settings on record: reference compound of the assay; ref PERKIN ELMER; cited from earlier work.
The target of series [13] is Nicotinic, Neuronal (a-BnTx insensitive). Set-up: method as in PERKIN ELMER. The settings on record: reference compound of the assay; ref PERKIN ELMER; cited from earlier work.
The target of series [14] is Glutamate, AMPA Site (Ionotropic). Set-up: method as in PERKIN ELMER. The following applies: reference compound of the assay; ref PERKIN ELMER; cited from earlier work.
The target of series [15] is Glycine, Strychnine-sensitive. The following applies: read-out: Reference Ki; reference compound of the assay; ref PERKIN ELMER; cited from earlier work.
Series [16] concerns the target Potassium Channel, ATP-Sensitive. Set-up: method as in PERKIN ELMER. The following applies: reference compound of the assay; ref PERKIN ELMER; cited from earlier work.
Series [17] has as its target Cholecystokinin, CCK2 (CCKB). Set-up: method as in PERKIN ELMER. The following applies: reference compound of the assay; ref PERKIN ELMER; cited from earlier work.
Series [18] concerns the target Glutamate, NMDA Agonist Site (Ionotropic). Set-up: method as in PERKIN ELMER. The settings on record: reference compound of the assay; ref PERKIN ELMER; cited from earlier work.
The target in series [19] is T1, Oxidase, MAO-A-Peripheral (Rattus norvegicus, UniProt P21396).
T1 sequence (P21396 1-526): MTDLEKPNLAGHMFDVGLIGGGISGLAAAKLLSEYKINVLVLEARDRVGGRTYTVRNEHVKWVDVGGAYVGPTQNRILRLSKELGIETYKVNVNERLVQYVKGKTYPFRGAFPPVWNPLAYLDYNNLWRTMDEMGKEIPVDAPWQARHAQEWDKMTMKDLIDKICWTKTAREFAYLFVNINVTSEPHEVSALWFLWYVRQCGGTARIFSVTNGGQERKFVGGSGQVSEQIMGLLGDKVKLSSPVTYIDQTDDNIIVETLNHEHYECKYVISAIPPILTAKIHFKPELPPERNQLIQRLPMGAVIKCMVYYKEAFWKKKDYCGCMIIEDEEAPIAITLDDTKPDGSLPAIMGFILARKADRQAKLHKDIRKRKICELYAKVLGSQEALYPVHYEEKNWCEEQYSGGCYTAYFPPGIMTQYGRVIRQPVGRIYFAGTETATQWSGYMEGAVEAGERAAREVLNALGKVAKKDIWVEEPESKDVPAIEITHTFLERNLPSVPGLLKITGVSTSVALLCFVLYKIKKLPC
Set-up: method as in PERKIN ELMER. The following applies: reference compound of the assay; ref PERKIN ELMER; cited from earlier work.

Series [20] addresses Potassium Channel, Ca2+ Act., VI. Set-up: method as in PERKIN ELMER. The following applies: reference compound of the assay; ref PERKIN ELMER; cited from earlier work.
In series [21] the target is GABA A, BDZ, alpha 1 site. The following applies: read-out: Reference Ki; reference compound of the assay; ref PERKIN ELMER; cited from earlier work.
For series [22], the target named is Esterase, Acetylcholine. Set-up: method as in PERKIN ELMER. The settings on record: reference compound of the assay; ref PERKIN ELMER; cited from earlier work.
Series [23] addresses Decarboxylase, Glutamic Acid. Set-up: method as in PERKIN ELMER. The settings on record: reference compound of the assay; ref PERKIN ELMER; cited from earlier work.
In series [24] the target is Glutamate, MK-801 Site (Ionotropic). Set-up: method as in PERKIN ELMER. The following applies: reference compound of the assay; ref PERKIN ELMER; cited from earlier work.
The target in series [25] is Melatonin, Non-selective. Set-up: method as in PERKIN ELMER. The following applies: reference compound of the assay; ref PERKIN ELMER; cited from earlier work.
The target of series [26] is Adrenergic, Beta, Non-selective. Set-up: method as in PERKIN ELMER. The settings on record: reference compound of the assay; ref PERKIN ELMER; cited from earlier work.
Series [27] deals with Corticotropin Releasing Factor, Non-selective. Set-up: method as in PERKIN ELMER. The settings on record: reference compound of the assay; ref PERKIN ELMER; cited from earlier work.
Where [28] appears, read: MDCK-MDR1, pH 7.4, Papp A2B Replicate 1, 10 µM.
[29] abbreviates: MDCK-MDR1, pH 7.4, Papp A2B Replicate 2, 10 µM.
The mark [30] stands for this setting: MDCK-MDR1, pH 7.4, Papp B2A Replicate 1, 10 µM.
Where [31] appears, read: MDCK-MDR1, pH 7.4, Papp B2A Replicate 2, 10 µM.

Turning to Angiotensin II (Human), in series [1], the Ki is 0.255 nM.

With `CCNC(=O)[C@H]1O[C@@H](n2cnc3c(N)ncnc32)[C@H](O)[C@@H]1O` [Neca], the Ki in series [2] is 7.46 nM. For the compound `NC(=NCCC[C@H](N)C(=O)O)N[N+](=O)[O-]` [NOARG (Nitro-L-Arginine)], the Ki in [3] was 26.3 nM. `COc1cc2nc(N3CCN(C(=O)c4ccco4)CC3)nc(N)c2cc1OC` [prazosin]: the values for the apparent permeability from apical to basolateral (Papp A→B) at 1 h, 10 µM in series [4] (setting [28]) and in [4] (setting [29]) were 2.48 ×10⁻⁶ cm/s and 1.96 ×10⁻⁶ cm/s, respectively. For the same compound, the Papp B→A at 1 h, 10 µM in series [4] (setting [30]) came out at 69.5 ×10⁻⁶ cm/s; in series [4] (setting [31]) it was 70.7 ×10⁻⁶ cm/s. For `CCN1C[C@]2(COC)[C@H](O)C[C@H](OC)[C@@]34[C@@H]5C[C@@]6(O)[C@H](OC(=O)c7ccccc7)[C@@H]5[C@@](OC(C)=O)([C@@H]([C@H](OC)[C@H]23)[C@@H]14)[C@@H](O)[C@@H]6OC` [Aconitine], the Ki in [5] is 2290 nM. As to `CN1[C@@H]2CC[C@H]1C[C@@H](OC(=O)C(CO)c1ccccc1)C2` (some centres unmarked) [Atropine sulfate], the inhibition constant Ki in [6] was 0.311 nM. In the case of `C=C(C)[C@H]1CN[C@H](C(=O)O)[C@H]1CC(=O)O` [Kainic Acid], the inhibition constant (Ki) in series [7] is 10.8 nM. For the compound `c1cc2ccc3cccc4ccc(c1)c2c34` [pyrene], the entries for the “log P for pyrene/Pluronics” value in [8] (F68) and in series [8] (P105) were “ca. 2.5” and approximately 3.5, respectively.

`O=C(O)/C(=C/c1c(C(=O)O)[nH]c2cc(Cl)cc(Cl)c12)c1ccccc1` [MDL-105,519]: in [9], the Ki was 31.5 nM. Consider Triton X-100 [10% Triton X-100], for which, in series [10], the haemolysis result is “caused haemolysis”. Take `c1ccc2oc(C3=NCCN3)cc2c1` [2-BFI]: the Ki in series [11] is 0.381 nM.

As to `Cc1ccc(/C(=C\CN2CCCC2)c2ccccn2)cc1` [Triprolidine], the Ki in series [12] was 7.33 nM. With `Clc1ccc([C@@H]2C[C@H]3CC[C@@H]2N3)cn1` (racemic) [(+/-) Epibatidine], in series [13], the Ki is 0.0912 nM. On to `Cc1o[nH]c(=O)c1CC(N)C(=O)O` (racemic) [(+/-) AMPA HBr], for which the Ki in series [14] is 90.7 nM. In the case of `O=C1C[C@@H]2OCC=C3CN4CC[C@]56c7ccccc7N1[C@H]5[C@H]2[C@H]3C[C@H]46` [Strychnine nitrate], the Ki in [15] is 28.1 nM. For the compound `COc1ccc(Cl)cc1C(=O)NCCc1ccc(S(=O)(=O)NC(=O)NC2CCCCC2)cc1` [Glibenclamide], the Ki in series [16] was 0.781 nM. CCK-8 (sulfated): the inhibition constant Ki in [17] was 0.307 nM.

For the compound `CN[C@H](CC(=O)O)C(=O)O` [NMDA], in series [18], the Ki is 6810 nM. With `c1cc2c(cc1C1CCCCC1)c1c3n2CCNC3CCC1` (centres unmarked) [Tetrindole mesylate], the Ki in [19] is 23.4 nM. `CC(C)NCC(O)COc1cccc2ccccc12` (centres unmarked) [propranolol]: the Papp A→B at 1 h, 10 µM in [4] (setting [28]) amounted to 34.1 ×10⁻⁶ cm/s; in series [4] (setting [29]), 28 ×10⁻⁶ cm/s. Also, the basolateral-to-apical permeability (Papp B→A) at 1 h, 10 µM was determined as 41.4 ×10⁻⁶ cm/s in series [4] (setting [30]) and 41.6 ×10⁻⁶ cm/s in series [4] (setting [31]). In the case of “Apamin (CNCKAPETALCARRCQQH-NH2; disulfide 1-11, 3-15; ends not checked; UniProt P01500 28-45, looked up)”, the Ki in [20] was 0.205 nM.

In the case of `CCOC(=O)c1ncn2c1CN(C)C(=O)c1cc(F)ccc1-2` [Ro15-1788 (Flumazenil)], in [21], the inhibition constant Ki was 0.721 nM. With `CNC(=O)Oc1ccc2c(c1)[C@]1(C)CCN(C)[C@@H]1N2C` [Eserine (Physostigmine)], the Ki in series [22] was 385 nM. Consider `NOCC(=O)O` [AminoOxy acetic acid], for which, in [23], the inhibitory constant (Ki) is 1170 nM. (+)-MK-801 HMaleate: the Ki in series [24] is 12.4 nM.

With `COc1ccc2[nH]cc(CCNC(C)=O)c2c1` [Melatonin], the Ki in [25] was […]. `C=CCc1ccccc1OCC(O)CNC(C)C` (centres unmarked) [Alprenolol HCl]: the inhibitory constant (Ki) in series [26] was 4.55 nM. For the compound Tyr0-oCRF, in series [27], the Ki was 10.7 nM.
